# In patent US6541020B1, “Methods and compositions for administration of therapeutic reagents” (Trimeris, Inc., priority 1999, dated 2003):
# Tests used:
# [1] = Pharmacokinetic study of T1249 in hydrogel composition or aqueous solution, subcutaneous injection, blood plasma levels; assay type: in vivo, Sprague-Dawley rats; settings: s.c.; for PTF / AUC(0-inf) / Cmax / Tmax / AUC(0-t) / half-life: approximately 1.25 mg/kg, rat plasma; for AUC(0-inf) / Cmax / Tmax / AUC(0-t) / half-life: Sprague-Dawley, rat, plasma, sc, 1.25 mg/kg; for AUC(0-t): read-out: AUC(0-12); for half-life: read-out: t1/2,terminal (converted)
# Procedure: (§1) Pharmacokinetic parameters were calculated from the data as follows: The terminal elimination phase half (t½, terminal) was calculated using the equation 0.693/k, where k equals the terminal elimination rate constant and is determined from a log/linear regression of at least three data points from the plasma concentration-time curve. Cmax was defined as the highest observed concentration between 0 and 12 hours postdose, and tmax is the collection time corresponding to Cmax. The area under the plasma concentration-time curve from 0 to 12 hours postdose (AUC(0-12) was calculated using the trapezoidal rule. AUC(0-∞) was calculated using the trapezoidal rule and extrapolated to infinity by dividing the last plasma concentration by the terminal elimination rate constant (k). PTF values (peak-trough fluctuations) were calculated using the equation (Cmax-Cmin)/Cav. Cmin was defined as the concentration of T20 at 12 hours postdose, and Cav was calculated using the equation AUC(0-12)/12.
# Carrier hydrogel compositions containing T1249 were prepared in both a hydrogel and aqueous compositions. A hydrogel composition was prepared by adding 12.5 mg of lyophilized T1249 to 1 mL of the F5 hydrogel formulation described above in Section 6. A pharmaceutical composition of T1249 in aqueous solution was also prepared by combining lyophilized T1249 (12.5 mg) to 2 mL of water for injection (USP). The contained 12.5 mg of T1249, 25 mg mannitol and sodium hydroxide/hydrochloric acid to adjust the pH to 6.5.
# The T1249 carrier hydrogel composition were administered to Sprague-Dawley rats according to the protocol described in Section 7.1, above, for T20. The rats were divided randomly into two groups (Groups I and II). The rats in Group I were each administered the above-described hydrogel compositions containing T1249. The rats in Group II were each administered the above-described composition of T1249 in aqueous buffer as a control. Blood plasma levels of T1249 were measured from samples collected from the animals immediately after (0 hours) and 1, 2, 4, 8, 12, 24, 36 and 48 hours post-dosing.
# Pharmacokinetic parameters were calculated from the data as described in Section 7.1, above.
# [2] = Pharmacokinetic study of T20 in hydrogel compositions or aqueous solution, single subcutaneous bolus injection, blood plasma levels; assay type: in vivo, Sprague-Dawley rats; settings: for Tmax / half-life / AUC(0-inf) / Cmax / AUC(0-t): male, Sprague-Dawley, sc; for AUC(0-t): read-out: AUC(0-12)
# Procedure: Pharmacokinetic studies were performed on 16 cannulated male Sprague-Dawley rats having an average weight of 0.230 kg (StdDev=0.008 kg). Specifically, the rats were divided randomly into four groups (Groups I-IV). The rats in Group I were each administered T20 at a concentration of 50 mg/mL in a higher viscosity gel system (i.e., of the F2-50 pharmaceutical composition described in Section 6.1, supra. The rats in Group II were each administered T20 at a concentration of 25 mg/mL in a higher viscosity gel system (i.e., of the F2-25 pharmaceutical composition described in Section 6.1, supra). The rats in Group III were each administered T20 at a concentration of 25 mg/mL in a lower viscosity gel system (i.e., of the F5-25 pharmaceutical composition described in Section 6.1, supra). The rats in Group IV were administered T20 at a concentration of 25 mg/mL in an aqueous buffer (i.e., the WI-25 pharmaceutical composition described supra) as a control. The rats in all of the groups received the T20 via a single subcutaneous bolus injection of 25 μL of the formulation on the right side of the abdomen through a 30G½ Gauge needle. Each group received a dose level of approximately 5 mg/kg (Group I) or 2.5 mg/kg (Groups II-IV). More specifically, the dosages received by the animals in Groups I-IV were 6.71 mg/kg, 2.90 mg/kg, 3.27 mg/kg and 2.78 mg/kg, respectfully. These dosages were selected to approximate the dose levels, on a mg/cm^2 basis, to be used in humans.
# Blood plasma levels of T20 were measured from samples collected from the animals immediately after (0 hours) and 1, 2, 4, 8, 12, and 24 hours post-dosing.
# as §1
# [3] = Group I: 12.5 mg/mL T1249 in low viscosity hydrogel (F5)
# [4] = Group II: 12.5 mg/mL T1249 in aqueous buffer (control)
# [5] = T20 as a subcutaneous injection of a hydrogel
# [6] = 2.9 mg/kg, Group II: F2-25, 25 mg/mL T20 in high viscosity hydrogel, single s.c. bolus 25 μL, 2.90 mg/kg, rat plasma
# [7] = Group I: F2-50, 50 mg/mL T20 in high viscosity hydrogel, single s.c. bolus 25 μL, 6.71 mg/kg, rat plasma
# [8] = Group III: F5-25, 25 mg/mL T20 in lower viscosity hydrogel, single s.c. bolus 25 μL, 3.27 mg/kg, rat plasma
# [9] = Group IV: WI-25, 25 mg/mL T20 in aqueous buffer (control), single s.c. bolus 25 μL, 2.78 mg/kg, rat plasma
compound,measurement,setting,value
CC[C@H](C)[C@H](NC(=O)[C@H](CCC(N)=O)NC(=O)[C@H](C)NC(=O)[C@H](CCC(N)=O)NC(=O)[C@H](CCC(=O)O)NC(=O)[C@H](CC(C)C)NC(=O)[C@H](CC(C)C)NC(=O)[C@H](C)NC(=O)[C@@H](NC(=O)[C@@H](NC(=O)[C@H](CCCCN)NC(=O)[C@H](CCC(N)=O)NC(=O)[C@H](CCC(=O)O)NC(=O)[C@H](Cc1c[nH]c2ccccc12)NC(=O)[C@H](CCC(=O)O)NC(=O)[C@H](CCC(N)=O)NC(=O)[C@H](Cc1c[nH]c2ccccc12)NC(C)=O)[C@@H](C)CC)[C@@H](C)O)C(=O)N[C@@H](CCC(N)=O)C(=O)N[C@@H](CCC(N)=O)C(=O)N[C@@H](CCC(=O)O)C(=O)N[C@@H](CCCCN)C(=O)N[C@@H](CC(N)=O)C(=O)N[C@@H](CCC(=O)O)C(=O)N[C@@H](Cc1ccc(O)cc1)C(=O)N[C@@H](CCC(=O)O)C(=O)N[C@@H](CC(C)C)C(=O)N[C@@H](CCC(N)=O)C(=O)N[C@@H](CCCCN)C(=O)N[C@@H](CC(C)C)C(=O)N[C@@H](CC(=O)O)C(=O)N[C@@H](CCCCN)C(=O)N[C@@H](Cc1c[nH]c2ccccc12)C(=O)N[C@@H](C)C(=O)N[C@@H](CO)C(=O)N[C@@H](CC(C)C)C(=O)N[C@@H](Cc1c[nH]c2ccccc12)C(=O)N[C@@H](CCC(=O)O)C(=O)N[C@@H](Cc1c[nH]c2ccccc12)C(=O)N[C@@H](Cc1ccccc1)C(N)=O [T1249],PTF,[1]; [3],1.62 ± 0.086
same,PTF,[1]; [4],4.44 ± 0.680
same,AUC(0-inf),[1]; [3],29100 ± 5200 ng·h/mL
same,Cmax,[1]; [3],1900 ± 334 ng/mL
same,Tmax,[1]; [3],8 h
same,AUC(0-t),[1]; [3],28200 ± 5640 ng·h/mL
same,half-life,[1]; [3],3.37 ± 0.68 h
same,AUC(0-inf),[1]; [4],18400 ± 4070 ng·h/mL
same,Cmax,[1]; [4],3320 ± 215 ng/mL
same,Tmax,[1]; [4],2 h
same,AUC(0-t),[1]; [4],18300 ± 4060 ng·h/mL
same,half-life,[1]; [4],2.28 ± 0.122 h
same,"pharmacokinetic properties, hydrogel versus aqueous solution",[1]; T1249 administered in a hydrogel composition,improved pharmacokinetic properties
enfuvirtide,T20 plasma concentration levels within 12 hours,"[2]; T20 administered by a hydrogel, s.c.",remained elevated
same,T20 plasma concentration levels within 12 hours,"[2]; T20 administered in an aqueous solution, s.c.",already cleared the blood stream
same,"change of bioavailability, hydrogel versus aqueous solution",[2]; [5],approximately doubling
same,"change of half-life, hydrogel versus aqueous solution",[2]; [5],approximately doubling
same,"dose proportionality of pharmacokinetics (AUC, t½)","[2]; high viscosity hydrogel formulation of T20, s.c., both dose levels",linearity of pharmacokinetics within the dose range tested
same,Tmax,"[2]; rat, plasma, 2.78 mg/kg, Group IV: WI-25, 25 mg/mL T20 in aqueous buffer (control), single s.c. bolus 25 μL, 2.78 mg/kg, rat plasma",~2 h
same,Tmax,"[2]; rat, plasma, 2.9 mg/kg, Group II: F2-25, 25 mg/mL T20 in high viscosity hydrogel, single s.c. bolus 25 μL, 2.90 mg/kg, rat plasma",4 h
same,Tmax,"[2]; rat, plasma, 3.27 mg/kg, Group III: F5-25, 25 mg/mL T20 in lower viscosity hydrogel, single s.c. bolus 25 μL, 3.27 mg/kg, rat plasma",4 h
same,half-life,"[2]; rat, plasma, T20 administered in a hydrogel, s.c., depending on the exact hydrogel formulation and T20 dosage, read-out: group mean half-life values",4.27 to 4.75 h
same,AUC(0-inf),[2]; [6],24800 ± 4860 ng·h/mL
same,Cmax,[2]; [6],2830 ± 316 ng/mL
same,AUC(0-t),[2]; [6],19600 ± 3450 ng·h/mL
same,half-life,"[2]; 2.9 mg/kg, Group II: F2-25, 25 mg/mL T20 in high viscosity hydrogel, single s.c. bolus 25 μL, 2.90 mg/kg, rat plasma, read-out: t1/2,terminal (converted)",4.27 ± 0.159 h
same,AUC(0-inf),[2]; [7],55400 ± 9150 ng·h/mL
same,Cmax,[2]; [7],5970 ± 499 ng/mL
same,AUC(0-t),[2]; [7],43400 ± 4480 ng·h/mL
same,half-life,"[2]; Group I: F2-50, 50 mg/mL T20 in high viscosity hydrogel, single s.c. bolus 25 μL, 6.71 mg/kg, rat plasma, read-out: t1/2,terminal (converted)",4.75 ± 0.285 h
same,AUC(0-inf),[2]; [8],32800 ± 9710 ng·h/mL
same,Cmax,[2]; [8],3780 ± 751 ng/mL
same,AUC(0-t),[2]; [8],25700 ± 6140 ng·h/mL
same,half-life,"[2]; Group III: F5-25, 25 mg/mL T20 in lower viscosity hydrogel, single s.c. bolus 25 μL, 3.27 mg/kg, rat plasma, read-out: t1/2,terminal (converted)",4.61 ± 0.618 h
same,AUC(0-inf),[2]; [9],6080 ± 1610 ng·h/mL
same,Cmax,[2]; [9],1550 ± 640 ng/mL
same,AUC(0-t),[2]; [9],5870 ± 1690 ng·h/mL
same,half-life,"[2]; Group IV: WI-25, 25 mg/mL T20 in aqueous buffer (control), single s.c. bolus 25 μL, 2.78 mg/kg, rat plasma, read-out: t1/2,terminal (converted)",2.19 h
